In patent US9846168B2, “Fluorescent metal ion indicators with large stokes shifts” (LIFE TECHNOLOGIES CORPORATION, priority 2004, dated 2017):

Legend:
[1] = Calcium binding: fluorescence titration in Ca++ buffers (0-39 μM), Kd calculated; conditions: fluorescence change on calcium binding
Description: (§1) In all cases, samples were dissolved in nanopure(np)-H2O at concentrations of approximately 1 mg/mL, except Compound 18 which was dissolved in 1:1 DMSO:npH2O. Non-quantitative aliquots of these solutions were added to approximately 3 mL of 39 μM Ca++ buffer, 100 mM KCl, 30 mM MOPS (pH7.2) (Compounds 5, 10, 13), Zero Ca++ buffer, 100 mM KCl, 30 mM MOPS (pH7.2) (Compound 18), or npH2O (Compound 21). Absorption spectra were obtained using a Perkin Elmer UV/Vis Spectrometer (Lambda 35 or 40). Fluorescence samples were prepared by pipetting aliquots of respective stock solutions to a series of disposable cuvettes containing 2 mL of Ca++ buffers from Calcium Calibration Buffer Kit #2 (Invitrogen cat.#3009) (0-39 μM). The final concentration of compound ranged from approximately 0.1-4 μM. Samples were excited at their wavelength of maximum absorption and spectra were obtained using a Perkin Elmer Luminescence Spectrometer (LS50B, LS55). Emission intensities were recorded at the respective maxima and Kd values calculated.

[2] = Absorption and fluorescence emission spectra of calcium binding compounds; format: physicochemical; conditions: for λem (nm): emission maximum, excited at wavelength of maximum absorption, Ca++ buffers 0-39 μM; for λex (nm): wavelength of maximum absorption, 39 μM Ca++ buffer, 100 mM KCl, 30 mM MOPS pH7.2 (Compounds 5, 10, 13), Zero Ca++ buffer (Compound 18), npH2O (Compound 21)
Description: as §1

SMILES	ΔF = Fb/Fo [1]	λem (nm) [2] [nm]	λex (nm) [2] [nm]
Cc1ccc(N(CC(=O)[O-])CC(=O)[O-])c(OCCOc2cc(CNS(=O)(=O)c3cccc4c(N(C)C)cccc34)ccc2N(CC(=O)[O-])CC(=O)[O-])c1.[K+].[K+].[K+].[K+] [Compound 5]	3	549	331
Cc1ccc(N(CC(=O)[O-])CC(=O)[O-])c(OCCOc2cc(CN3C(=O)c4cccc5c(N)ccc(c45)C3=O)ccc2N(CC(=O)[O-])CC(=O)[O-])c1.[K+].[K+].[K+].[K+] [Compound 13]	12	550	432
Cc1ccc(N(CC(=O)[O-])CC(=O)[O-])c(OCCOc2cc(CNC(=O)c3c4oc5cc(O)ccc5nc-4ccc3=O)ccc2N(CC(=O)[O-])CC(=O)[O-])c1.[Li+].[Li+].[Li+].[Li+] [Compound 18]	5	589	550
Cc1ccc(N(CC(=O)[O-])CC(=O)[O-])c(OCCOc2cc(CNC(=O)c3cc(=O)cc4oc5cc(N(C)C)ccc5nc3-4)ccc2N(CC(=O)[O-])CC(=O)[O-])c1.[Li+].[Li+].[Li+].[Li+] [Compound 21]	11	641	612
